According to US10479795B2 (Incyte Corporation, priority 2016, dated 2019):
Structures can show the parent of a compound that is named as a salt. Where two headings read alike, the source gives them in different places.

Assays:
[1] = tested on: Phosphorylated Ribosomal Protein S6 (RPS6); assay: THP-1 RPS6 ELISA Assay; assay type: cell-based, Human; details: THP-1 cells, read-out: PI3Kγ_THP1_RPS6_ELISA IC50
In short: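 Serum-starved THP-1 cells were preincubated with a concentration range of compound for 2 h at 37 °C, then stimulated with 10 nM MCP-1 for 15 min. Phospho-RPS6 in lysates was quantified by ELISA at 450 nm. IC50 came from percent inhibition versus log inhibitor concentration.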

[2] = target: PI3Kγ (p110γ) Recombinant Human Protein (Homo sapiens (Human), UniProt P48736); assay: PI3K-γ Scintillation Proximity Assay; assay type: biochemical; details: read-out: PI3Kγ IC50
In short: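 Recombinant human p110γ assayed at room temperature in 20 mM MOPS pH 6.7, 10 mM MgCl2, 5 mM DTT, 0.03% CHAPS, 2% DMSO, with 20 μM PIP2 and 2 μM ATP plus [γ-33P]ATP. Product captured on WGA SPA beads overnight and counted; IC50 fitted from % of solvent-control activity versus log inhibitor concentration.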

[3] = target: PI3Kδ (p110δ/p85α) Recombinant Human Protein (Homo sapiens (Human), UniProt O00329); assay: PI3Kδ Scintillation Proximity Assay; assay type: biochemical
In short: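 Recombinant human p110δ/p85α (3.4 nM) phosphorylates 20 μM di-octanoyl PIP2 using 2 μM ATP spiked with [γ-33P]ATP, 120 min, room temperature, pH 6.7, 2% DMSO. Product measured by scintillation proximity; IC50 from dose-response fit.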

Chain of PI3Kδ (p110δ/p85α) Recombinant Human Protein (O00329 whole entry): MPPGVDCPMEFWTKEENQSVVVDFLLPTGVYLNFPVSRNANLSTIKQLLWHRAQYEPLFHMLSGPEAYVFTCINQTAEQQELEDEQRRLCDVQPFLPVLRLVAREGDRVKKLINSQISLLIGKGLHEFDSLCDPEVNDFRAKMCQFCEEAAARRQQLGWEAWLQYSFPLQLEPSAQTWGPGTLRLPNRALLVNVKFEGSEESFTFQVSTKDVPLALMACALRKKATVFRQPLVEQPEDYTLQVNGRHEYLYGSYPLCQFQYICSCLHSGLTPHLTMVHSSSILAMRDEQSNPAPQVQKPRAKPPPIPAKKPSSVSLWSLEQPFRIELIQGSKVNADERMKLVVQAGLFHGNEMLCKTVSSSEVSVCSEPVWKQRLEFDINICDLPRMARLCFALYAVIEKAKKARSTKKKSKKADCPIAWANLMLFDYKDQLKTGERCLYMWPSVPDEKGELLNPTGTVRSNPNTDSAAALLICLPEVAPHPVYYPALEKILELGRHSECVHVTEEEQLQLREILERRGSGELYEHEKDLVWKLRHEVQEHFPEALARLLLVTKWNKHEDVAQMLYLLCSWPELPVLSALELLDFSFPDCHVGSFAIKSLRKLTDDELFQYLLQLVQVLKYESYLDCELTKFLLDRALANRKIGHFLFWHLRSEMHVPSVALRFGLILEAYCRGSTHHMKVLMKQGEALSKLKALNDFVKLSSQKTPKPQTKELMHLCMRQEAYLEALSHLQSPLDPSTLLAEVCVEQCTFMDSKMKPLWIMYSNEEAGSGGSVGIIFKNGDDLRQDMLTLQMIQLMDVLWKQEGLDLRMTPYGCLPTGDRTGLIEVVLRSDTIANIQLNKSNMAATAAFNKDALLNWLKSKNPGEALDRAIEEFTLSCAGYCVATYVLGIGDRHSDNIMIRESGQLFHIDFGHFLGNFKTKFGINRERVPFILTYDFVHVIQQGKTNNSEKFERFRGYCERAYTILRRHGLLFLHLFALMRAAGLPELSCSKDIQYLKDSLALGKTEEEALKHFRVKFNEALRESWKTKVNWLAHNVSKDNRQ
Chain of PI3Kδ (p110δ/p85α) Recombinant Human Protein (P27986 whole entry partner): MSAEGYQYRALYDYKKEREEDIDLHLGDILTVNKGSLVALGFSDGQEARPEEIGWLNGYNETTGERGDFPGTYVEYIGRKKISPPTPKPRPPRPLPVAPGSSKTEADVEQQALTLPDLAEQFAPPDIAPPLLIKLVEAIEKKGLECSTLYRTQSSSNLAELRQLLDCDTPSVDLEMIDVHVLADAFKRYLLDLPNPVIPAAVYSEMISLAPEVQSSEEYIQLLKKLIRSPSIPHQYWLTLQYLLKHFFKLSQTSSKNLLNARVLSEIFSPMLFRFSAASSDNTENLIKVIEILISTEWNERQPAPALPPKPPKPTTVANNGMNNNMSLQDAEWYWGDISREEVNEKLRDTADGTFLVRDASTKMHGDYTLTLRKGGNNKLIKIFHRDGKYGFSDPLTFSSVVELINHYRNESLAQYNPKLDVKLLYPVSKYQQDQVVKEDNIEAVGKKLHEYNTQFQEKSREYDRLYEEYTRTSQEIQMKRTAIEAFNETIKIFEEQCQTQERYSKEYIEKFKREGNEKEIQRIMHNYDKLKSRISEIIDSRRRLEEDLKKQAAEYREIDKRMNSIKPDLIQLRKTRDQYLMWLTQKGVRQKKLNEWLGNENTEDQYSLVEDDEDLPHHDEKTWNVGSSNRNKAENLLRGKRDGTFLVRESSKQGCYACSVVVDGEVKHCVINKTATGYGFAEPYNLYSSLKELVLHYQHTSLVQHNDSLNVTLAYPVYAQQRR
Chain of PI3Kγ (p110γ) Recombinant Human Protein (P48736 whole entry): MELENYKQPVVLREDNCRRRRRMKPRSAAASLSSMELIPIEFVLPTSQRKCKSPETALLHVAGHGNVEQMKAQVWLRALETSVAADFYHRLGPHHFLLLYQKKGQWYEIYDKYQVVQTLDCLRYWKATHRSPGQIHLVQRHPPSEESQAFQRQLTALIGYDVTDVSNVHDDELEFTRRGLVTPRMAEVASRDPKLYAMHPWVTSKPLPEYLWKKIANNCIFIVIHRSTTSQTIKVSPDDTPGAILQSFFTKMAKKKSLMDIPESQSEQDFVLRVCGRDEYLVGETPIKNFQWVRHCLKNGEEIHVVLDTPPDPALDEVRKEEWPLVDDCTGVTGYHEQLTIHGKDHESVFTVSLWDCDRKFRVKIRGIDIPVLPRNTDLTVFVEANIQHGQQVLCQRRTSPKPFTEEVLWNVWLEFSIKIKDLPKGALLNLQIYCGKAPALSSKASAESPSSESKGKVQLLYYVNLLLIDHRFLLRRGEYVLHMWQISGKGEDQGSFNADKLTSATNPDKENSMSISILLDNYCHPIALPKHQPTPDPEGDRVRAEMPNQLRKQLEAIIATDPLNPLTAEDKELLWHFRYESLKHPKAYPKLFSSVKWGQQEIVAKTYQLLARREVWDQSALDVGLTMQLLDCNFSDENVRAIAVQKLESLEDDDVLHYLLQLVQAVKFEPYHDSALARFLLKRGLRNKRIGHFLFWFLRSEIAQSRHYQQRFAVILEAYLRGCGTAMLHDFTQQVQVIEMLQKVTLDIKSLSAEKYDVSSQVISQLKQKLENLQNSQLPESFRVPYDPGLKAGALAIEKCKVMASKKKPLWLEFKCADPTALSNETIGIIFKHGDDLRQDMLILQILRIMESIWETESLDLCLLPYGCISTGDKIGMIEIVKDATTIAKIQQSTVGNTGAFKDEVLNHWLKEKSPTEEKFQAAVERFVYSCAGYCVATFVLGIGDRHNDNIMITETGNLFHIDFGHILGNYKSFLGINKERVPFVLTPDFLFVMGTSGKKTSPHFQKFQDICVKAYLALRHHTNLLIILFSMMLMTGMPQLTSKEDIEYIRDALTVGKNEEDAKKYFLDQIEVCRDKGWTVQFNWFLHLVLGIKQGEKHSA

| Structure (SMILES) | IC50 [1] [nM] | IC50 [2] [nM] | IC50 [3] [nM] | IC50 ([1]; Homo sapiens) [nM] |
| --- | --- | --- | --- | --- |
| Cc1cn2c(-c3ccc(Cl)c(S(=O)(=O)N[C@H]4CC[C@](C)(O)CC4)c3)cnc2c(N)n1 [Example 385, 5-(8-amino-6-methylimidazo[1,2-a]pyrazin-3-yl)-2-chloro-N-((1r,4r)-4-hydroxy-4-methylcyclohexyl)benzenesulfonamide] | 100 to 500 | < 100 | < 100 |  |
| Nc1nc(C(F)(F)F)cn2c(-c3cc(S(=O)(=O)NC45CCC(CO)(C4)C5)ccc3Cl)cnc12 [Example 393, 3-(8-Amino-6-(trifluoromethyl)imidazo[1,2-a]pyrazin-3-yl)-4-chloro-N-(4-(hydroxymethyl)bicyclo[2.1.1]hexan-1-yl)benzenesulfonamide] |  | < 100 | 500 to 2000 | 100 to 500 |
| Nc1nc(C(F)(F)F)cn2c(-c3cccc(S(=O)(=O)NC45CCC(CO)(C4)C5)c3)cnc12 [Example 394, 3-(8-Amino-6-(trifluoromethyl)imidazo[1,2-a]pyrazin-3-yl)-N-(4-(hydroxymethyl)bicyclo[2.1.1]hexan-1-yl)benzenesulfonamide trifluoroacetate salt] |  | < 100 | 100 to 500 | 100 to 500 |
| N#CC12CCC(NS(=O)(=O)c3cccc(-c4cnc5c(N)nc(C(F)(F)F)cn45)c3)(C1)C2 [Example 395, 3-(8-Amino-6-(trifluoromethyl)imidazo[1,2-a]pyrazin-3-yl)-N-(4-cyanobicyclo[2.1.1]hexan-1-yl)benzenesulfonamide trifluoroacetate salt] |  | < 100 | 100 to 500 | 100 to 500 |
| N#CC12CCC(NS(=O)(=O)c3cc(-c4cnc5c(N)nc(C(F)(F)F)cn45)ccc3F)(C1)C2 [Example 396, 5-(8-Amino-6-(trifluoromethyl)imidazo[1,2-a]pyrazin-3-yl)-N-(4-cyanobicyclo[2.1.1]hexan-1-yl)-2-fluorobenzenesulfonamide trifluoroacetate salt] |  | < 100 | 100 to 500 | 500 to 1000 |
| Cc1c(F)cc(S(=O)(=O)NC23CCC(C#N)(C2)C3)cc1-c1cnc2c(N)nc(C(F)(F)F)cn12 [Example 397, 3-(8-Amino-6-(trifluoromethyl)imidazo[1,2-a]pyrazin-3-yl)-N-(4-cyanobicyclo[2.1.1]hexan-1-yl)-5-fluoro-4-methylbenzenesulfonamide trifluoroacetate salt] |  | < 100 | 100 to 500 | < 100 |
| Nc1nc(C(F)(F)F)cn2c(-c3ccc(F)c(S(=O)(=O)NC45CCC(CO)(C4)C5)c3)cnc12 [Example 398, 5-(8-Amino-6-(trifluoromethyl)imidazo[1,2-a]pyrazin-3-yl)-2-fluoro-N-(4-(hydroxymethyl)bicyclo[2.1.1]hexan-1-yl)benzenesulfonamide trifluoroacetate salt] |  | < 100 | 100 to 500 | 500 to 1000 |
| Nc1nc(C(F)(F)F)cn2c(-c3ccc(Cl)c(S(=O)(=O)NC45CCC(CO)(C4)C5)c3)cnc12 [Example 399, 5-(8-Amino-6-(trifluoromethyl)imidazo[1,2-a]pyrazin-3-yl)-2-chloro-N-(4-(hydroxymethyl)bicyclo[2.1.1]hexan-1-yl)benzenesulfonamide trifluoroacetate salt] |  | < 100 | < 100 | > 1000 |
| Cc1cc(C)c(S(=O)(=O)NC23CCC(CO)(C2)C3)cc1-c1cnc2c(N)nc(C(F)(F)F)cn12 [Example 400, 5-(8-Amino-6-(trifluoromethyl)imidazo[1,2-a]pyrazin-3-yl)-N-(4-(hydroxymethyl)bicyclo[2.1.1]hexan-1-yl)-2,4-dimethylbenzenesulfonamide trifluoroacetate salt] |  | < 100 | < 100 | < 100 |
| Cc1nc(N)c2ncc(-c3cc(S(=O)(=O)N[C@H]4CC[C@](C)(O)CC4)c(F)cc3C)n2n1 [Example 402, 5-(4-amino-2-methylimidazo[1,2-f][1,2,4]triazin-7-yl)-2-fluoro-N-((1r,4r)-4-hydroxy-4-methylcyclohexyl)-4-methylbenzenesulfonamide trifluoroacetate salt] | 100 to 500 | < 100 | 100 to 500 |  |

The remaining lines, values ahead:

| IC50 [1] [nM] | IC50 [2] [nM] | IC50 [3] [nM] | IC50 ([1]; Homo sapiens) [nM] | Structure (SMILES) |
| --- | --- | --- | --- | --- |
|  | < 100 | 100 to 500 | < 100 | O=C(O)C(F)(F)F.[2H]C([2H])([2H])c1ccc(S(=O)(=O)NC23CCC(C#N)(C2)C3)cc1-c1cnc2c(N)nc(C)nn12 [Example 386, 3-(4-Amino-2-methylimidazo[2,1-f][1,2,4]triazin-7-yl)-N-(4-cyanobicyclo[2.1.1]hexan-1-yl)-4-(methyl-d3)benzenesulfonamide trifluoroacetate salt] |
| < 100 | < 100 | 100 to 500 |  | Cc1nc(N)c2ncc(-c3ccc(F)c(S(=O)(=O)NC45CCC(C#N)(C4)C5)c3)n2n1 [Example 387, 5-(4-Amino-2-methylimidazo[1,2-f][1,2,4]triazin-7-yl)-N-(4-cyanobicyclo[2.1.1]hexan-1-yl)-2-fluorobenzenesulfonamide trifluoroacetate salt] |
| > 1000 | < 100 | 100 to 500 |  | Cc1nc(N)c2ncc(-c3ccc(F)c(S(=O)(=O)NC45CC(C#N)(C4)C5)c3)n2n1 [Example 388, 5-(4-Amino-2-methylimidazo[1,2-f][1,2,4]triazin-7-yl)-N-(3-cyanobicyclo[1.1.1]pentan-1-yl)-2-fluorobenzenesulfonamide trifluoroacetate salt] |
|  | < 100 | < 100 | < 100 | Cc1nc(N)c2ncc(-c3cc(S(=O)(=O)N[C@H]4CC[C@H](CC#N)OC4)c(Cl)cc3C)n2n1 [Example 389, 5-(4-amino-2-methylimidazo[2,1-f][1,2,4]triazin-7-yl)-2-chloro-N-((3S,6R)-6-(cyanomethyl)tetrahydro-2H-pyran-3-yl)-4-methylbenzenesulfonamide] |
|  | < 100 | 100 to 500 | 100 to 500 | O=C(O)C(F)(F)F.[2H]C([2H])([2H])c1ccc(S(=O)(=O)NC23CCC(CO)(C2)C3)cc1-c1cnc2c(N)nc(C(F)(F)F)cn12 [Example 390, 3-(8-Amino-6-(trifluoromethyl)imidazo[1,2-a]pyrazin-3-yl)-N-(4-(hydroxymethyl)bicyclo[2.1.1]hexan-1-yl)-4-(methyl-d3)benzenesulfonamide trifluoroacetate salt] |
|  | < 100 | 100 to 500 | < 100 | O=C(O)C(F)(F)F.[2H]C([2H])([2H])c1ccc(S(=O)(=O)NC23CC(CO)(C2)C3)cc1-c1cnc2c(N)nc(C(F)(F)F)cn12 [Example 391, 3-(8-Amino-6-(trifluoromethyl)imidazo[1,2-a]pyrazin-3-yl)-N-(3-(hydroxymethyl)bicyclo[1.1.1]pentan-1-yl)-4-(methyl-d3)benzenesulfonamide trifluoroacetate salt] |
|  | < 100 | < 100 | 100 to 500 | N#CC12CCC(NS(=O)(=O)c3cc(-c4cnc5c(N)nc(C(F)(F)F)cn45)ccc3Cl)(C1)C2 [Example 392, 5-(8-Amino-6-(trifluoromethyl)imidazo[1,2-a]pyrazin-3-yl)-2-chloro-N-(4-cyanobicyclo[2.1.1]hexan-1-yl)benzenesulfonamide trifluoroacetate salt] |
